The numbers were not newly measured in patent publication US20040166503A1, “Methods for gene expression profiling” (priority 2004, published 2004), which cites them from elsewhere.

For data set [1], the system named is bone marrow stem cells and peripheral white blood cell.
The test system of data set [2] is extracellular signal-regulated kinase (ERK). The conditions noted are these: during TLK286 induced apoptosis.
A further data set has as its system p38 kinase. The conditions noted are these: during TLK286 induced apoptosis.
Data set [3] has as its system c-Jun N-terminal kinase (JNK). The conditions noted are these: during TLK286 induced apoptosis.
For data set [4], the system named is M7609 xenografts expressing different levels of GST P1-1. The conditions noted are these: murine xenografts of M7609; responses positively correlated with GST P1-1 expression.
Data set [5] relates to cancer cell lines and tumors. The conditions noted are these: wide variety of cancer cell lines and tumors.
The subject of data set [6] is resistant HL60 human promyelocytic cell line. The settings on record: inhibition of glutathione synthesis by BSO.

With `N[C@@H](CCC(=O)N[C@@H](CS(=O)(=O)CCOP(=O)(N(CCCl)CCCl)N(CCCl)CCCl)C(=O)N[C@@H](C(=O)O)c1ccccc1)C(=O)O` [TLK286, gamma-glutamyl-alpha-amino-beta(2-ethyl-N,N,N′,N-tetrakis(2-chloroethyl)phosphorodiamidate)-sulfonyl-propionyl-(R)-(−)phenylglycine], the “myelosuppressive effect (toxicity)” value in data set [1] was “only mildly toxic”. Besides, in data set [2], the ERK activation result is “not”. Moreover, the p38 kinase activation entry in the data set on p38 kinase is recorded as “not”. The JNK activation result in data set [3] is “activated”. The “antitumor activity in vivo” value in data set [4] is listed as “antitumor activity has also been observed”. In data set [5], the cytotoxicity entry is “cytotoxic”.
As for `CCCCS(=N)(=O)CCC(N)C(=O)O` (stereo not shown) [BSO], the “effect on sensitivity of resistant cells to TLK286” value in data set [6] is “increases the sensitivity”.
